Patent publication US12681009B2, “Molecular target in cancer” (The Regents of the University of California, priority 2021, dated 2026)

Columns and labels:
MSI2-RNA interaction = target: T1, MSI2-RNA interaction (Homo sapiens, UniProt Q96DH6); experiment: MSI2 TR-FRET assay, primary screen and triplicate confirmation; assay type: binding; conditions: identified by the method disclosed herein
T1 construct: purchased LS Bio G2396
Method: In some embodiments, inhibitory compounds of MSI2-RNA interactions were identified using the methods disclosed herein. In a primary screening of small molecule compound libraries using the MSI2 binding TR-FRET assay, 194,914 compounds were screened at 15 μM final concentration for induced inhibition of MSI2-RNA interaction. Hit compounds were selected with a cut-off of at least 30% inhibition. Subsequently, after analysis of donor- and acceptor-channels, and removal of potential detection artefacts, 1,391 compounds were selected and confirmed by MSI2 and U1A TR-FRET assays in triplicates and at 15 μM concentration (Table 1).
(§1) FIG. 6 illustrates the FRET assay principle for MSI2 and U1A. The NUMB RNA probe for MSI2 was selected based on prior scientific publications and has the following sequence: 5′[…]-Biotin (SEQ ID NO: 1) (Oncotarget, 8(63): 106587-106597 (2017). The RNA probe for U1A was designed based on an interaction study between U1A and RNA done by NMR (Structure 4(5): 621-631 (1996)) and has the following sequence: 5′[…]-Biotin (SEQ ID NO: 2). The underlined sequence represents the part which interacts with the protein, the sequence of AYYGCAC should fit into the groove of U1A according to the NMR studies. The remaining sequence without underline is a spacer. The assay developed provides robust TR-FRET readout.
FIG. 7 illustrates the high throughput screening workflow. […] The hit cut-off criteria are >30% inhibition. The hit triaging is based on analysis of donor- and acceptor-channels, removal of potential detection artefacts. The hit confirmation is based on triplicate confirmation runs (15 μM) in MSI2 and U1A TR-FRET assays. The compound selection for dose-response is a dose-response testing in MSI2 and U1A to filter for compounds that have the drug potential. The hit selection for hit to lead (HTL) is based on QC on dose responsive hits SAR tractability, and model building for hit expansion.

[1] = target: T2, Musashi RNA Binding Protein 2 (MSI2) (Homo sapiens, UniProt Q96DH6); experiment: MSI2:NUMB-Biotin5′ RNA binding assay HTRF, 10-point duplicate dose response curves of 512 compounds (FIG. 14); conditions: 10-point duplicate curves, 100 μM to 5.6 nM, 3× dilution, MSI2 (His tag) 5 nM, NUMB-Biotin5′ RNA 1.25 nM, Streptavidin XL665 5 nM, His TB-Cryptate 0.6 nM, pH 7.3, read-out: MSI2 IC50 (normalized FRET ratio)
T2 construct: purchased LS Bio G2396
Description: In some embodiments, a MSI2 binding assay was developed where streptavidin labeled with XL665 or d2 was used as the acceptor, and Terbium (Tb) cryptate was used as the donor. For example, in the MSI2 binding assay, NUMB RNA was biotinylated at the 5′ end to create NUMB-Biotin 5′ RNA, which was coupled to the XL665 or d2-labeled streptavidin acceptor through streptavidin-biotin interaction. The MSI2 protein was engineered to contain a His tag, which was coupled to the Tb cryptate donor through an anti-His antibody attached to the Tb cryptate. Due to the MSI2-NUMB RNA interaction, the XL665 or d2 acceptor was brought into proximity of the Tb cryptate donor, thus generating a detectable FRET signal. Parameters of the binding assay, including the concentrations of MSI2 and NUMB-Biotin 5′ RNA, were optimized. Thus, the interaction of the MSI2 protein to NUMB-Biotin 5′ RNA could create a detectable FRET signal that can be used for subsequent binding assays and screening for modulators of MSI2-RNA interactions.
Reagents and protein/peptide: MSI2-LS Bio G2396 (provided in 20 mM Tris-HCL pH 8.0, 150 mM NaCl, 10% glycerol, 1 mM DTT); U1A-LS Bio G19194-10 (provided in 16 mM HEPES, pH 7.6, 400 mM NaCl, 20% glycerol); NUMB 5′Biotin—(IDT); NUMB 5′—(IDT); U1A RNA 5′ Biotin—(IDT); U1A RNA 5′—(IDT); HEPES pH 7.3 (RNase/DNase free)—(Fisher—BP299); Molecular grade water (RNase/DNase free)—(Invitrogen-10977-95); DTT (molecular grade—RNase/DNase free)—(Promega-V3151); Pluronic F-127—(Sigma Aldrich SKU #P2443); NaCl (RNase/DNase free)—(Sigma—S3014); 6His Terbium (TB) Cryptate—(CisBio—61HI2TLA); Streptavidin XL665 (CisBio—610SAXLA); AlphaPlate-1536 well flat bottom plate, Light gray (Perkin Elmer #6004350); and AlphaScreen Histidine Detection Kit (Perkin Elmer, Cat. No. 6760619C) containing AlphaScreen Nickel Chelate Acceptor Beads (5 mg/ml), and AlphaScreen Streptavidin Donor Beads (5 mg/ml).
as §1
IC50 analysis of 512 compounds selected from the confirmation screen (MSI2:NUMB-Biotin5′) screen was performed. The 512 compounds were run in duplicate 10-point dose response curve with a high concentration of 100 μM and a low concentration of 5.6 nM. The total volume of the assay was 8 μl and all steps except for ECHO dispense were performed on Tempest disperser. 80 nL of compounds in DMSO was dispensed in 10 point titrations of 3× dilutions with the t concentration of 100 μM and the bottom concentration of 5.6 nM from 10 mM stock using ECHO acoustic dispenser-duplicate curves on the same assay plate. 2 μL of assay buffer was added, 2 μL of MSI2 (4× Conc.) final concentration of 5 nM was added, and incubated for 30 minutes. […]

[2] = target: T3, MSI2 protein and NUMB-Biotin5′ RNA (Homo sapiens, UniProt Q96DH6); experiment: MSI2:NUMB-CTRL RNA competition assay, HTRF (384 well plate); assay type: binding; conditions: competitor RNA titrated from 1000 nM, 2× dilution over 9 points; MSI2 5 nM + NUMB-Biotin5′ 1.25 nM
T3 construct: purchased LS Bio G2396
Method: (§2) MSI2: Numb/U1A:Target RNA Competition assay-HTRF (384 well plate): CisBio HTRF protocol was followed in a total assay volume of 20 μl. 5 μL of NUMB-CTRL RNA/Target-CTRL (4× Conc.) titrated in 10 point in 2× dilution, 5 μL of MSI2 protein/U1A protein (4× Conc.) final concentration of 5 nM was added to each well, 5 μL of NUMB-Biotin5′/Target-Biotin5′ RNA (4× Conc.) final concentration of 1.25 nM and Streptavidin XL665 acceptor (4×) final concentration of 5 nM were added, and incubated for 60 minutes at room temperature. 5 μL of 4×His TB cryptate, final concentration of 0.6 nM was added and incubated at room temperature for 60 minutes and read on envision. The assay buffer contained 150 mM NaCl, 25 mM HEPES pH 7.3, 1 mM DTT, and 0.05% pluronic F-127.
(§3) NUMB RNA or U1A target RNA was titrated starting from 1000 nM in 2× dilution over 9 points against MSI2 5 nM+NUMB-Biotin5′ 1.25 nM. […] NUMB RNA or U1A target RNA was titrated starting from 1000 nM in 2× dilution over 9 points against U1A 5 nM+U1A Target-Biotin5′ 1.25 nM. […] X axis: Log of CTRL RNA (M); Y axis: (Streptavidin XL665/6His TB cryptate ratio)*1000.
(§4) NUMB RNA or U1A target RNA was titrated starting from 1000 nM in 2× dilution over 9 points against MSI2 5 nM+NUMB-Biotin5′ 1.25 nM. […] NUMB RNA or U1A target RNA was titrated starting from 1000 nM in 2× dilution over 9 points against U1A 5 nM+U1A Target-Biotin5′ 1.25 nM. […]

[3] = target: T4, U1A protein and U1A target-Biotin5′ RNA (Homo sapiens, UniProt P09012); experiment: U1A:Target-CTRL RNA competition assay, HTRF (384 well plate); assay type: binding; conditions: competitor RNA titrated from 1000 nM, 2× dilution over 9 points; U1A 5 nM + U1A Target-Biotin5′ 1.25 nM
T4 construct: purchased LS Bio G19194-10
Method: as §2, §3, §4

T1 sequence (Q96DH6 whole entry): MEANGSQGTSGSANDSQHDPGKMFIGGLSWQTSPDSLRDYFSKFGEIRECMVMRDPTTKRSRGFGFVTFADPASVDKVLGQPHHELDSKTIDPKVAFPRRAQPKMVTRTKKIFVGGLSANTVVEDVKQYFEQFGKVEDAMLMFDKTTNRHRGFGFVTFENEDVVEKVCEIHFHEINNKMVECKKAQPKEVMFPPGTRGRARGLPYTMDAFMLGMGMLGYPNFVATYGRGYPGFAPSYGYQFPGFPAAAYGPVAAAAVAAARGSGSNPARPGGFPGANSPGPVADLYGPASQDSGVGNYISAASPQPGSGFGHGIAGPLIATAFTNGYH
T2 sequence (Q96DH6 whole entry): as above
T4 sequence (P09012 whole entry, species assumed): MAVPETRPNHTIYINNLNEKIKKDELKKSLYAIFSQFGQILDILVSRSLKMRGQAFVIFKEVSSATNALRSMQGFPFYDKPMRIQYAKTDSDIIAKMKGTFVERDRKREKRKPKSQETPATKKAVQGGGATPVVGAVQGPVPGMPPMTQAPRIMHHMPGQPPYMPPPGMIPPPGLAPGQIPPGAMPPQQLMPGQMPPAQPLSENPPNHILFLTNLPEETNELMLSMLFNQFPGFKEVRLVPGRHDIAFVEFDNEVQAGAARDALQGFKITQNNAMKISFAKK
T3 sequence (Q96DH6 whole entry): as the sequence (Q96DH6 whole entry) above

| Molecule | inhibitor of MSI2-RNA interaction identified by the method (MSI2-RNA interaction) | IC50 [1] [nM] | further results |
| --- | --- | --- | --- |
| Cc1cc(C)n2c(SCC(=O)c3cccc(N4CCCC4=O)c3)nnc2n1 [1-{3-[2-({5,7-dimethyl-[1,2,4]triazolo[4,3-a]pyrimidin-3-yl}sulfanyl)acetyl]phenyl}pyrrolidin-2-one] | inhibitors of MSI2-RNA interaction |  |  |
| Cc1ccc(C)n1-c1ccc(SCC(=O)O)cc1 [2-{[4-(2,5-dimethyl-1H-pyrrol-1-yl)phenyl]sulfanyl}acetic acid] | inhibitors of MSI2-RNA interaction |  |  |
| Cc1ccc(C)n1-c1sccc1C(=O)N1CC(C(N)=O)Oc2ccccc21 (stereo not drawn) [4-[2-(2,5-dimethyl-1H-pyrrol-1-yl)thiophene-3-carbonyl]-3,4-dihydro-2H-1,4-benzoxazine-2-carboxamide] | inhibitors of MSI2-RNA interaction |  |  |
| O=c1cc(CN2CCn3c(nnc3-c3ccccc3)C2)[nH]c2ccnn12 [5-({3-phenyl-5H,6H, 7H,8H-[1,2,4]triazolo[4,3-a]pyrazin-7-yl}methyl)-4H,7H-pyrazolo[1,5-a]pyrimidin-7-one] | inhibitors of MSI2-RNA interaction |  |  |
| CC(=O)N1CCC(NC(=O)c2cc(C)c(C)s2)CC1 [N-(1-acetylpiperidin-4-yl)-4,5-dimethylthiophene-2-carboxamide] | inhibitors of MSI2-RNA interaction |  |  |
| Cc1ccc(C)n1-c1sccc1C(=O)N1CC(C(N)=O)Oc2ccccc21 (stereo not drawn) [WXHTS0047719, 4-[2-(2,5-dimethyl-1H-pyrrol-1-yl)thiophene-3-carbonyl]-3,4-dihydro-2H-1,4-benzoxazine-2-carboxamide] |  | 710 |  |
| Cc1ccc(C)n1-c1ccc(SCC(=O)O)cc1 [WXHTS0063086, 2-{[4-(2,5-dimethyl-1H-pyrrol-1-yl)phenyl]sulfanyl}acetic acid] |  | 470 |  |
| Cc1cc(C)n2c(SCC(=O)c3cccc(N4CCCC4=O)c3)nnc2n1 [WXHTS0080223, 1-{3-[2-({5,7-dimethyl-[1,2,4]triazolo[4,3-a]pyrimidin-3-yl}sulfanyl)acetyl]phenyl}pyrrolidin-2-one] |  | 850 |  |
| CC(=O)N1CCC(NC(=O)c2cc(C)c(C)s2)CC1 [WXHTS0092123, N-(1-acetylpiperidin-4-yl)-4,5-dimethylthiophene-2-carboxamide] |  | 920 |  |
| O=c1cc(CN2CCn3c(nnc3-c3ccccc3)C2)[nH]c2ccnn12 [WXHTS0101810, 5-({3-phenyl-5H,6H, 7H,8H-[1,2,4]triazolo[4,3-a]pyrazin-7-yl}methyl)-4H,7H-pyrazolo[1,5-a]pyrimidin-7-one] |  | 850 |  |
| NUMB RNA: non-biotinylated NUMB RNA that competes with NUMB-Biotin 5′ RNA to bind the MSI2 protein (UAGGUAGUAGUUUUA; non-biotinylated RNA, further chemistry not given here) |  |  | displacement of the binding signal between MSI2 protein and NUMB-Biotin5′ RNA [2]: displaced the binding signal; displacement of the binding signal between U1A protein and U1A target-Biotin5′ RNA [3]: did not displace the binding signal |
